US20260306488A1, “FUNCTIONAL PROTECTIVE AGENT FOR ORGAN OR TISSUE” (TOHOKU UNIVERSITY, priority 2023, published 2026)

Tests used:
[1] = system: adenine-fed renal failure model mouse; experiment: Plasma markers (creatinine, ALT, total cholesterol) in adenine-fed renal failure model mouse; assay type: in vivo, mouse (male C57BL/6); details: plasma samples after 2-week feeding
Experimental: (§1) In order to confirm that a present compound has an effect of protecting kidney function and liver function in a renal failure model, 2,5-diketopiperazine (cGP; see Table 1) encompassed in the present compound was used for performing analysis in which the cGP is administered to a model mouse with chronic renal failure induced by feeding adenine (hereinafter referred to as the “adenine-fed renal failure model mouse”) to analyze the blood concentration of a uremic substance (creatinine), that is, an indicator of kidney function, and a ratio of renal tubules, as well as to analyze blood concentrations of three liver function markers (ALT, AST, and γGTP) and two lipids (total cholesterol and TG). The adenine-fed renal failure model mouse is a mouse that develops kidney damage because fed adenine crystallizes as insoluble 2,8-dihydroxyadenine in the renal tubules (Cozzolino, M. et al. Kidney Int. 64, 441-450 (2003), Tamagaki, K. et al. Nephrol. Dial. Transplant 21, 651-659 (2006)).
(§2) The analysis using an adenine-fed renal failure model mouse was performed according to the following procedures through:
(§3) [1] 8-Week old male C57BL/6 mice (purchased from Japan CLEA) were grouped into a normal diet group (n=6) to be fed a normal diet (CE-2, manufactured by Japan CLEA), and an adenine-fed group (n=12) to be fed the normal diet containing 0.2% adenine (manufactured by Wako).
[2] After feeding the mice for 6 weeks, the adenine-fed group was grouped into an adenine-fed control group (n=6) to be fed the normal diet, and an adenine-fed cGP group (n=6) to be fed the normal diet containing cGP. The normal diet containing cGP was prepared by mixing cGP (manufactured by Bachem) with the normal diet to a final concentration of 0.0025%.
[3] After feeding the mice for 2 weeks, blood samples were harvested from each of the three groups (the normal diet group, the adenine-fed control group, and the adenine-fed cGP group) to prepare plasma samples (referred to as “plasma samples after 2-week feeding”) according to a usual method.
[4] […]

[2] = system: diabetes model mouse (db/db mouse); experiment: Liver tissue analysis by HE staining in diabetes model mouse; assay type: in vivo, mouse (BKS-db/db); details: diabetes model cGP group (cGP in diet) vs diabetes model normal diet group; after 6-week feeding; FIG. 4
Experimental: (§4) Next, in order to confirm that the present compound protects kidney function and liver function in a diabetes model, cGP was administered to a diabetes model mouse (db/db mouse) to analyze blood concentrations of two uremic substances (creatinine and phenyl sulfate), as well as a blood concentration of a factor leading to renal failure in a patient with type 1 diabetes (N6-acetyllysine [Ac6Lys]), and additionally, pathological tissues of liver and blood concentrations of three liver function markers (ALT, AST, and γGTP) and two lipids (total cholesterol and TG) were analyzed.
(§5) The analysis using a diabetes model mouse was performed according to the following procedures through:
[1] Wild-type mice (BKS-m+/m+ mice, purchased from Japan CLEA) having been fed a normal diet (CE-2, manufactured by Japan CLEA) were grouped into a wild-type normal diet group (n=5) to be fed the normal diet, and a wild-type cGP group (n=4) to be fed the normal diet containing cGP. Besides, diabetes model mice (BKS-db/db mice; purchased from Japan CLEAR) having been fed the normal diet were grouped into a diabetes model normal diet group (n=4) to be fed the normal diet, and a diabetes model cGP group (n=4) to be fed the normal diet containing cGP. […]

[3] = system: diabetes model mouse (db/db mouse); experiment: Plasma creatinine, phenyl sulfate and Ac6Lys in diabetes model mouse; assay type: in vivo, mouse (BKS-db/db)
Experimental: as §4, §5
[1] Wild-type mice (BKS-m+/m+ mice, purchased from Japan CLEA) having been fed a normal diet (CE-2, manufactured by Japan CLEA) were grouped into a wild-type normal diet group (n=5) to be fed the normal diet, and a wild-type cGP group (n=4) to be fed the normal diet containing cGP. Besides, diabetes model mice (BKS-db/db mice; purchased from Japan CLEAR) having been fed the normal diet were grouped into a diabetes model normal diet group (n=4) to be fed the normal diet, and a diabetes model cGP group (n=4) to be fed the normal diet containing cGP. Blood samples were harvested from the diabetes model cGP group, and plasma samples (referred to as the “plasma samples after 0-week feeding”) were prepared according to a usual method.
[2] After feeding the mice for 6 weeks, blood samples were harvested from the above four groups (the wild-type normal diet group, the wild-type cGP group, the diabetes model normal diet group, and the diabetes model cGP group), plasma samples (referred to as the “plasma samples after 6-week feeding”) were prepared according to a usual method, and then, liver tissues were harvested, fixed in 10% neutral-buffered formalin, and embedded in paraffin, and the resultant paraffin-embedded liver tissues were sliced to prepare liver tissue sections.
[3] The thus obtained “plasma samples after 0-week feeding” and “plasma samples after 6-week feeding” were used to measure blood concentrations of the three substances (creatinine, phenyl sulfate, and Ac6Lys) (see FIGS. 5 and 6), and blood concentrations of three liver function markers (ALT, AST, and γGTP) and two lipids (total cholesterol and TG) by mass spectrometry using LC-MS/MS (manufactured by Shimadzu Corporation). Besides, the liver tissue sections prepared as described above were used to perform analysis by Hematoxylin and Eosin (HE) staining method according to a usual method (see FIG. 4).

[4] = system: diabetes model mouse (db/db mouse); experiment: Plasma uremic substances (m1A and TMAO) in diabetes model mouse; assay type: in vivo, mouse (BKS-db/db); details: diabetes model cGP group (cGP in diet) vs diabetes model normal diet group, after 5-week feeding, Unpaired t-test p<0.01
Experimental: Next, in order to confirm that the present compound reduces chronic inflammation and resulting cellular damage, and prevents vascular complication in a diabetes model, cGP was administered to a diabetes model mouse (db/db mouse) to analyze blood concentrations of two uremic substances (1-methyladenosine [m1A] and trimethylamine-N-oxide [TMAO]).
as §5
[1] Diabetes model mice (BKS-db/db mice, purchased from Japan CLEA) having been fed a normal diet (CE-2, manufactured by Japan CLEA) were grouped into a diabetes model normal diet group (n=10) to be fed the normal diet, and a diabetes model cGP group (n=10) to be fed the normal diet containing cGP.
[2] After feeding the mice for 5 weeks, blood samples were harvested from the above two groups (the diabetes model normal diet group, and the diabetes model cGP group), and plasma samples were prepared according to a usual method.
[3] The thus prepared plasma samples were used to measure blood concentrations of two uremic substances (m1A and TMAO) by mass spectrometry using LC-MS/MS (manufactured by Shimadzu Corporation) (see FIG. 7).

[5] = system: adenine-fed renal failure model mouse; experiment: Kidney tissue analysis by Masson's Trichrome Staining in adenine-fed renal failure model mouse (ratio of renal tubules); assay type: in vivo, mouse (male C57BL/6); details: adenine-fed cGP group (0.0025% cGP in diet) vs adenine-fed control group; FIG. 2A, Dunnett's test p<0.01; FIG. 2 legend says after 2-week feeding, method says tissue harvested at 3 weeks
Experimental: as §1, §2, §3
[2] […]

Structure (SMILES): O=C1NCC(=O)N2CCCC12 (centres unmarked) [cGP, cyclo-glycyl-proline]
- ALT concentration in plasma ([1]; adenine-fed cGP group (0.0025% cGP in diet) vs adenine-fed control group, FIG. 3A, Dunnett's test p<0.05): significantly decreased
- total cholesterol concentration in plasma ([1]; adenine-fed cGP group (0.0025% cGP in diet) vs adenine-fed control group, FIG. 3B, Dunnett's test p<0.05): significantly decreased
- creatinine concentration in plasma ([1]; adenine-fed cGP group (normal diet containing 0.0025% cGP) vs adenine-fed control group, FIG. 1, Dunnett's test): significantly decreased
- fat droplets in the liver [2]: reduced
- creatinine concentration in plasma ([3]; diabetes model cGP group (cGP in diet) vs diabetes model normal diet group, plasma samples after 6-week feeding, FIG. 5, Dunnett's test): significantly decreased
- blood concentration of creatinine, week 6 vs week 0 ([3]; diabetes model cGP group (cGP in diet), week 6 after feeding compared to week 0, FIG. 6A, Paired t-test p<0.05): significantly lower
- blood concentration of phenyl sulfate, week 6 vs week 0 ([3]; diabetes model cGP group (cGP in diet), week 6 after feeding compared to week 0, FIG. 6B, Paired t-test p<0.05): significantly lower
- blood concentration of N6-acetyllysine (Ac6Lys), week 6 vs week 0 ([3]; diabetes model cGP group (cGP in diet), week 6 after feeding compared to week 0, FIG. 6C, Paired t-test p<0.05): significantly lower
- m1A (1-methyladenosine) concentration in plasma ([4]; FIG. 7A): significantly reduced
- TMAO (trimethylamine-N-oxide) concentration in plasma ([4]; FIG. 7B): significantly reduced
- ratio of renal tubules in the renal cortex [5]: significantly increased
